Measured values reported in patent US8293481B2, “Biomarkers for chronic vascular dysfunction” (Mayo Foundation for Medical Education and Research, priority 2006, dated 2012).

Experiments:
[1] = tested on: panel of genes listed in b69 and b71 (Tmlhe, Af6, F2, Ywag, PPAR A, Resp18, Edn1, oxytocin and others); assay: Real-time PCR gene expression in aorta post MI, genes listed together as unchanged; assay type: in vivo, rat; conditions: post MI groups versus uninfarcted control
Text: After intubation, rats were ventilated continuously (room air) using a small animal ventilator (Model 683, Harvard Apparatus, Holliston, Mass.). A left lateral thoracotomy incision was made along the 5th intercostal space and after the pericardium was opened, the heart was exteriorized using a retention suture placed at the apex. The left anterior descending coronary artery (LAD) was ligated twice using 6-0 prolene suture (Ethicon, Cornelia, Ga.). After chest closure with running 3-0 vicryl suture (Ethicon), rats were put in a recovery chamber with a heating pad and warming light. The post-operative survival rate reached 80%. […] Confirmation of microarray result by quantitative real-time PCR: The remaining RNA from the aortic or portal vein RNA sample was quantitatively converted to single stranded cDNA using the High-Capacity cDNA Archive Kit (Applied Biosystems, Foster City, Calif.). […] The synthesized cDNA was then mixed with TAQMAN® Universal PCR Master Mix (2.5 μl of cDNA+47.5 μl of RNase-free H2O+50 μl of Master Mix) and loaded onto 384-Well micro fluid cards for quantitative real-time PCR (TAQMAN® Low Density Arrays, Applied Biosystems). […] For each cDNA sample, four replicates were analyzed for real-time PCR. […] The array was then run on the Applied Biosystems 7900HT Fast Real-time PCR System, and the data were analyzed using an Applied Biosystems RQ Manager Software (SDS 2.1). […]

[2] = tested on: Raf1 (v-raf-1 murine leukemia viral oncogene homolog 1); assay: Real-time PCR gene expression in aorta post MI; assay type: in vivo, rat; conditions: 2 weeks post-infarction
Text: (§1) After intubation, rats were ventilated continuously (room air) using a small animal ventilator (Model 683, Harvard Apparatus, Holliston, Mass.). A left lateral thoracotomy incision was made along the 5th intercostal space and after the pericardium was opened, the heart was exteriorized using a retention suture placed at the apex. The left anterior descending coronary artery (LAD) was ligated twice using 6-0 prolene suture (Ethicon, Cornelia, Ga.). After chest closure with running 3-0 vicryl suture (Ethicon), rats were put in a recovery chamber with a heating pad and warming light. The post-operative survival rate reached 80%. […] Rats were fed a standard diet of Teklad rodent feed (Harlan) ad libitum and kept on a 12:12 h light-dark cycle. Rats were sacrificed at designated time intervals of 2 weeks and 4 weeks after surgery. […] Isolation of total RNA: […] Surrounding peri-adventitial tissues, fat, and endothelium were then carefully cleaned away and removed. The remaining vascular smooth muscle was then frozen with liquid nitrogen, pulverized into fine powder, and resuspended in 600 μl of Buffer RLT with β-ME (10 μl β-ME: 1 ml Buffer RLT, Qiagen, Valencia, Calif.). The lysate was pipetted directly onto a QIAshredder spin column (Qiagen) placed in a 2 ml collection tube and centrifuged for 5 minutes at 14000 rpm, 4° C. The supernatant was transferred to a new microcentrifuge tube and 1 volume of 70% ethanol was added and mixed. The cleared lysate was then transferred to an RNeasy mini-column (Qiagen) placed in a 2 ml collection tube and spun for 15 seconds at ≧10,000 rpm, 4° C. The flow-through was discarded and 700 μl of Buffer RW1 (Qiagen) was added to the RNeasy column. After the column was spun for 15 seconds at ≧10,000 rpm (4° C.), it was transferred into a new 2 ml collection tube, washed, spun twice with 500 μl Buffer RPE (Qiagen), and eluted with 40 μl of RNase-free water using a microcentrifuge (≧10,000 rpm, 4° C.) for 1 minute. Final RNA samples were stored at -20° C. to prevent degradation. Confirmation of microarray result by quantitative real-time PCR: The remaining RNA from the aortic or portal vein RNA sample was quantitatively converted to single stranded cDNA using the High-Capacity cDNA Archive Kit (Applied Biosystems, Foster City, Calif.). Briefly, 50 μl of RNA sample was mixed with 50 μl of 2×RT master mix (10 μl of 10× Reverse Transcription Buffer, 4 μl of 25× dNTPs, 10 μl of 10× random primers, 5 μl of […] Reverse Transcriptase at 50 U/μl, 21 μl of RNase-free H2O) and pipetted into 0.2 ml MICROAMP® PCR Reaction Tubes with Caps (Applied Biosystems, Foster City, Calif.). Reverse transcription was performed using a thermal cycler (Eppendorf Mastercycler gradient) with incubation conditions set at 25° C. for 10 minutes followed by 37° C. for 120 minutes. The synthesized cDNA was then mixed with TAQMAN® Universal PCR Master Mix (2.5 μl of cDNA+47.5 μl of RNase-free H2O+50 μl of Master Mix) and loaded onto 384-Well micro fluid cards for quantitative real-time PCR (TAQMAN® Low Density Arrays, Applied Biosystems). This was done with customer-selected TAQMAN® Gene Expression Assays preloaded into each of the 384 wells. The 7900 HT Gene Expression Micro Fluid Card Configuration 2 (Applied Biosystems) with a total of 24 targets was used; 22 targets were selected to include the results from the microarray study, and the remaining two targets were controls GAPDH and 18S controls. For each cDNA sample, four replicates were analyzed for real-time PCR. After all ports of the Micro Fluidic Card were loaded with cDNA, it was spun for even distribution into the wells using a Sorvall Legend centrifuge (1 minute at 1200 rpm). The array was then run on the Applied Biosystems 7900HT Fast Real-time PCR System, and the data were analyzed using an Applied Biosystems RQ Manager Software (SDS 2.1). […]

Rock2 (Rho kinase 2) = assay: Real-time PCR gene expression in aorta post MI; assay type: in vivo, rat; conditions: 2 weeks post-infarction
Text: as §1

[3] = tested on: MIR16 (membrane interacting protein of RGS16); assay: Real-time PCR gene expression in aorta post MI; assay type: in vivo, rat; conditions: 4 weeks post-infarction (increased at 2 weeks), FIG. 1
Text: as §1

[4] = tested on: IL-1β (interleukin 1 beta); assay: Real-time PCR gene expression in aorta post MI; assay type: in vivo, rat; conditions: 2 weeks post-infarction
Text: as §1

Agt (angiotensinogen) = assay: Real-time PCR gene expression in aorta post MI; assay type: in vivo, rat; conditions: 4 weeks post-infarction (increased at 2 weeks), FIG. 1
Text: as §1

[5] = tested on: Cxcl12 (chemokine (C-X-C motif) ligand 12); assay: Real-time PCR gene expression in aorta post MI; assay type: in vivo, rat; conditions: 4 weeks post-infarction (increased at 2 weeks), FIG. 1
Text: as §1

[6] = tested on: Baat (bile acid-Coenzyme A amino acid N-acyltransferase); assay: Real-time PCR gene expression in aorta post MI; assay type: in vivo, rat; conditions: 2 weeks post-infarction
Text: as §1

[7] = tested on: Gls2 (glutaminase 2 (liver, mitochondrial)); assay: Real-time PCR gene expression in aorta post MI; assay type: in vivo, rat; conditions: 2 weeks post-infarction
Text: as §1

[8] = tested on: Fmr1 (fragile X mental retardation syndrome 1 homolog); assay: Real-time PCR gene expression in aorta post MI; assay type: in vivo, rat; conditions: 2 weeks post-infarction
Text: as §1

[9] = tested on: Sprague-Dawley rats, LAD ligation infarct model of CHF; assay: Left ventricular function by transthoracic echocardiography (fractional shortening) in rat infarct model of CHF; assay type: in vivo; conditions: 2 weeks post-infarction; captopril 2 g/l in drinking water; uninfarcted 56%, placebo 29%
Text: After intubation, rats were ventilated continuously (room air) using a small animal ventilator (Model 683, Harvard Apparatus, Holliston, Mass.). A left lateral thoracotomy incision was made along the 5th intercostal space and after the pericardium was opened, the heart was exteriorized using a retention suture placed at the apex. The left anterior descending coronary artery (LAD) was ligated twice using 6-0 prolene suture (Ethicon, Cornelia, Ga.). After chest closure with running 3-0 vicryl suture (Ethicon), rats were put in a recovery chamber with a heating pad and warming light. The post-operative survival rate reached 80%. […] Rats were fed a standard diet of Teklad rodent feed (Harlan) ad libitum and kept on a 12:12 h light-dark cycle. Rats were sacrificed at designated time intervals of 2 weeks and 4 weeks after surgery. […] Cardiac function was estimated using fractional shortening (FS) obtained from the EDD and ESD in the parasternal long axis view and calculated as FS=((EDD-ESD)/EDD)×100%.

C[C@H](CS)C(=O)N1CCC[C@H]1C(=O)O [Captopril, 1-[(2S)-3-mercapto-2-methylpropionyl]-L-proline]
did not demonstrate any difference: Raf1 expression, placebo or captopril therapy [2] | Rock2 expression, placebo or captopril therapy (Rock2 (Rho kinase 2)) | IL1-β expression, placebo or captopril therapy [4] | Baat expression, placebo or captopril therapy [6] | Gls2 expression, placebo or captopril therapy [7] | Fmr1 expression, placebo or captopril therapy [8]
38%: fractional shortening (FS) [9]
difference disappeared: MIR16 expression, captopril versus placebo [3] | Agt expression, captopril versus placebo (Agt (angiotensinogen)) | Cxcl12 expression, captopril versus placebo [5]
no significant change: expression of 14 genes (Taok1, Raf1, Fmr1, Rock2, Baat, Gls2, Acot8, Tmlhe, Af6, F2, Ywag, PPAR A, Resp18, Edn1 and oxytocin) ([1]; 2 weeks post infarction) | expression of 14 genes (MIR16, Agt, Cxcl12, Seh1h, Cox5, HGF, Tmlhe, Af6, F2, Ywag, PPAR A, Resp18, Edn1 and oxytocin) ([1]; 4 weeks post infarction)
